For orientation: IC50 means the point on the concentration scale where inhibition reaches its midpoint. Read a low IC50 as inhibition by little substance.

The source of these data is patent US11306092B2, “Amino indole compounds useful as TLR inhibitors” (BRISTOL-MYERS SQUIBB COMPANY, priority 2017, dated 2022).

Holding throughout (assay type): cell-based
For assay [1], the target named is T1, human TLR9 (Homo sapiens, UniProt Q9NR96).
T1 construct: host or cells: HEK-Blue cells
T1 sequence (Q9NR96 26-1032): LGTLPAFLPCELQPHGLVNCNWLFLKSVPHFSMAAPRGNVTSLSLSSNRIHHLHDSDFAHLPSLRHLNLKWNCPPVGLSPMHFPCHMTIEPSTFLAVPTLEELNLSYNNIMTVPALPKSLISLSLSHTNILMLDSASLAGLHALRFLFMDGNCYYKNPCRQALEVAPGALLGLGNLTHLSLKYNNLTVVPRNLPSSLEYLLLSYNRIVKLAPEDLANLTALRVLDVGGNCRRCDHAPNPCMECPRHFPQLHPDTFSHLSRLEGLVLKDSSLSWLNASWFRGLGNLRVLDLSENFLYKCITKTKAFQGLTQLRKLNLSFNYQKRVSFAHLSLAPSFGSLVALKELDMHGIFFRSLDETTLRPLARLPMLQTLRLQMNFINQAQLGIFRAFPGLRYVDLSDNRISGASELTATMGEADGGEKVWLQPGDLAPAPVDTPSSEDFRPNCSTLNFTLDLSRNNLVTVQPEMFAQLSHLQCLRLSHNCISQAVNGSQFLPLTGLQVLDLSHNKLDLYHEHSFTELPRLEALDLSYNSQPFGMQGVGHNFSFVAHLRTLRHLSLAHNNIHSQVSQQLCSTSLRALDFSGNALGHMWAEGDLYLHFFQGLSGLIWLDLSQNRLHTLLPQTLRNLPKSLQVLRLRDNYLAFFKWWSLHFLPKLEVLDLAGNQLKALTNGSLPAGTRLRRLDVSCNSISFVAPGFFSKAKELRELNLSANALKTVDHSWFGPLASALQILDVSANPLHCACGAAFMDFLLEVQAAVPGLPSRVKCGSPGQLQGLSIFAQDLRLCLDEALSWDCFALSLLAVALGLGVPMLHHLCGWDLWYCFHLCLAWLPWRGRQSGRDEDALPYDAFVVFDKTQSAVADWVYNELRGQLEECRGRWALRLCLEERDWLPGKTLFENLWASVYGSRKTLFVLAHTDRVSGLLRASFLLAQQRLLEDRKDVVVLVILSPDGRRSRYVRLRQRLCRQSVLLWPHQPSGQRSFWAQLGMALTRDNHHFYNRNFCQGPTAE
The assay can be described thus: TLR9 inhibition reporter assay (HEK-Blue SEAP reporter). The note with it: HEK-Blue cells overexpressing human TLR9; ODN2006 5 nM; 22 hour incubation. In outline:
(§1)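 Compound treatment: 30 min, RT, 0.05 nM–50 μM final. Agonist: TLR7 gardiquimod 7.5 μM; TLR8 R848 15.9 μM; TLR9 ODN2006 5 nM. Incubation 22 h, 37 °C, 5% CO2. Readout SEAP, HEK-Blue Detection.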
Background: A reporter such as luciferase makes a cellular process visible.

The target of assay [2] is T2, human TLR8 (Homo sapiens, UniProt Q9NR97).
T2 construct: host or cells: HEK-Blue cells
T2 sequence (Q9NR97 27-1041): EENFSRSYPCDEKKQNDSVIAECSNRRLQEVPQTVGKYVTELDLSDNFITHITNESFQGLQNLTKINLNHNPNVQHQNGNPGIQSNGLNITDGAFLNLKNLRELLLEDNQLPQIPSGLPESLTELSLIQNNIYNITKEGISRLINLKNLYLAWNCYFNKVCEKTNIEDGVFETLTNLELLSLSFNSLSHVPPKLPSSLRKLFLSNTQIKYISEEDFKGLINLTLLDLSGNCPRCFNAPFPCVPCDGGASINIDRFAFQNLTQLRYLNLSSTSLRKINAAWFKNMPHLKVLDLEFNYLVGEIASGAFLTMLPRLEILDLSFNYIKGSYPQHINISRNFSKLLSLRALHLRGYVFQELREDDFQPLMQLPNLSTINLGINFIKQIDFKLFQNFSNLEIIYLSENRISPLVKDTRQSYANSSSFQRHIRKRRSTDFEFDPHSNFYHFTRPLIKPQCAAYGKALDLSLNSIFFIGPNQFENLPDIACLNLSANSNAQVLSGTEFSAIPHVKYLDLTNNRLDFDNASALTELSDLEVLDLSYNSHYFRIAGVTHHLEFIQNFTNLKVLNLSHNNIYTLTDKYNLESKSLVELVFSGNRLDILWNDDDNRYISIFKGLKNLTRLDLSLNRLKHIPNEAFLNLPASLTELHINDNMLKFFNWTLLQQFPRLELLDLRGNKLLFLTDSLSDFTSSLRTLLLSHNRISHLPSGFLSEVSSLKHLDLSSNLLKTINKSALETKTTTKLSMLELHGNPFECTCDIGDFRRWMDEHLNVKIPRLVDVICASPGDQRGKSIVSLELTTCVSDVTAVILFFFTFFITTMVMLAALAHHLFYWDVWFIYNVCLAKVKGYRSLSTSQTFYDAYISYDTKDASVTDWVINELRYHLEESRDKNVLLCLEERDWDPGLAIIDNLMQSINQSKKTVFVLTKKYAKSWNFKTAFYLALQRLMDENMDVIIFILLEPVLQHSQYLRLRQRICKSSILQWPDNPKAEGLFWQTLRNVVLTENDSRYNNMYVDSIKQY
The experiment in a line: TLR8 inhibition reporter assay (HEK-Blue SEAP reporter). To be noted: HEK-Blue cells overexpressing human TLR8; R848 15.9 μM; 22 hour incubation. An outline of the steps:
as §1

Assay [3] has as its target T3, human TLR7 (Homo sapiens, UniProt Q9NYK1).
T3 construct: host or cells: HEK-Blue cells
T3 sequence (Q9NYK1 27-1049): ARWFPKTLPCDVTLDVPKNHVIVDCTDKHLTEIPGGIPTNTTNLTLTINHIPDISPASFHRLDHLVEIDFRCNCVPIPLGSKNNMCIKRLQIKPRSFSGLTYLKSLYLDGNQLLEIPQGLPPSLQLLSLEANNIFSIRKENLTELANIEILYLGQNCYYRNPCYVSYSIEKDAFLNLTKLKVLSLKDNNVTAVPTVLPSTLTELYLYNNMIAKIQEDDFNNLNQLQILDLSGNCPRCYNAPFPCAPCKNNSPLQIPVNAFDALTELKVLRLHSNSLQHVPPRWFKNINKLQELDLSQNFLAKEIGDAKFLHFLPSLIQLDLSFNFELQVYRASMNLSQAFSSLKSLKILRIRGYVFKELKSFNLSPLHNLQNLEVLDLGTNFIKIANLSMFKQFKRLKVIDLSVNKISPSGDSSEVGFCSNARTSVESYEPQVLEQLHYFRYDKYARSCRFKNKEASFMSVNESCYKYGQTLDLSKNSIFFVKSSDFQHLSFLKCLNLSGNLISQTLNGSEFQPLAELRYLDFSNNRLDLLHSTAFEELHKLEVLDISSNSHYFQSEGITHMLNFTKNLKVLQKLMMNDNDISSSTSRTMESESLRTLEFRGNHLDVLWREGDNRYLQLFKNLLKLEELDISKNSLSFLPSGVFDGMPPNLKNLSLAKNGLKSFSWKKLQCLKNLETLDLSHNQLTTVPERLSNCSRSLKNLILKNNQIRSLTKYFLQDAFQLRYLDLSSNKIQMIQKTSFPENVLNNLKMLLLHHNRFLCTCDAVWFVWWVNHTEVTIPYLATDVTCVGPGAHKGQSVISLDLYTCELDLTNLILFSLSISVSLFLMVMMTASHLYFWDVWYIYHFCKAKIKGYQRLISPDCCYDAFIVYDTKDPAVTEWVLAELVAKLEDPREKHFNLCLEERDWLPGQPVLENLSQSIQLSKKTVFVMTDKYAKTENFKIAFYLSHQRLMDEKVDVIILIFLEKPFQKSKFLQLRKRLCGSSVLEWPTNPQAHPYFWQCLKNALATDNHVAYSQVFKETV
The assay can be described thus: TLR7 inhibition reporter assay (HEK-Blue SEAP reporter). To be noted: HEK-Blue cells overexpressing human TLR7; gardiquimod 7.5 μM; 22 hour incubation. An outline of the steps:
as §1

As for `COc1ccc(-c2[nH]c3ccc(NC(=O)C4CCNC4)cc3c2C(C)C)cc1OC` (stereo not drawn) [Example 13, N-(2-(3,4-dimethoxyphenyl)-3-isopropyl-1H-indol-5-yl) pyrrolidine-3-carboxamide], the IC50 turned out to be 0.55 µM in assay [1], 0.0084 µM in assay [2] and 0.051 µM in assay [3].

With `CCc1c(-c2ccnc3[nH]ncc23)[nH]c2ccc(N3CCC(OC4CCN(C(C)C)CC4)CC3)cc12` [Example 185, 4-(3-ethyl-5-(4-((1-isopropylpiperidin-4-yl)oxy)piperidin-1-yl)-1H-indol-2-yl)-1H-pyrazolo[3,4-b]pyridine], the figures for the IC50 in assay [1], in assay [2] and in assay [3] were 1.41 µM, 18.6 µM and 15 µM, respectively.

As to `COc1ccc(-c2[nH]c3ccc(N4CCC(N5CCOCC5)CC4)cc3c2C(C)C)cc1OC` [Example 74, 4-(1-(2-(3,4-dimethoxyphenyl)-3-isopropyl-1H-indol-5-yl)piperidin-4-yl)morpholine], the 50% inhibitory concentration (IC50) in assay [1] was 5.21 µM; in assay [2], 0.015 µM; in assay [3] it was 0.062 µM.

As for `COc1ccc(-c2[nH]c3ccc(N4CCC(NCCN5CCOCC5)CC4)cc3c2C(C)C)cc1OC` [Example 86, 1-(2-(3,4-dimethoxyphenyl)-3-isopropyl-1H-indol-5-yl)-N-(2-morpholinoethyl)piperidin-4-amine], the IC50 in assay [1] worked out at 2.8 µM; in assay [2], 0.0048 µM; in assay [3], 0.041 µM.

`COc1ccc(-c2[nH]c3ccc(N4CCC(OCCN(C)C)CC4)cc3c2C(C)C)cc1OC` [Example 114, 2-((1-(2-(3,4-dimethoxyphenyl)-3-isopropyl-H-indol-5-yl)piperidin-4-yl)oxy)-N,N-dimethylethan-1-amine]: the IC50 in assay [1] was 0.951 µM; in assay [2], 0.024 µM; in assay [3], 0.46 µM.

With `CCc1c(-c2ccnc3[nH]ccc23)[nH]c2ccc(N3CCN(C4CCN(C(C)C)CC4)CC3)cc12` [Example 157, 4-(3-ethyl-5-(4-(1-isopropylpiperidin-4-yl)piperazin-1-yl)-1H-indol-2-yl)-1H-pyrrolo[2,3-b]pyridine], the IC50 in assay [1] was determined as 0.559 µM; in assay [2] it was 0.635 µM; in assay [3] it was 4.23 µM.

`COc1ccc(-c2[nH]c3ccc(N4CCC(NC5CCN(C(C)=O)CC5)CC4)cc3c2C(C)C)cc1OC` [Example 89, 1-(4-((1-(2-(3,4-dimethoxyphenyl)-3-isopropyl-1H-indol-5-yl)piperidin-4-yl)amino)piperidin-1-yl) ethan-1-one]: the IC50 came to 2 µM in assay [1], 0.005 µM in assay [2] and 0.031 µM in assay [3].

For `CCc1c(-c2ccnc3c2ccn3C)[nH]c2ccc(N3CCN(C4CCN(C(C)C)CC4)CC3)cc12` [Example 165, 4-(3-ethyl-5-(4-(1-isopropylpiperidin-4-yl)piperazin-1-yl)-1H-indol-2-yl)-1-methyl-H-pyrrolo[2,3-b] pyridine], the IC50 in assay [1] was 0.685 µM; in assay [2], 9.4 µM; in assay [3] it was 5.9 µM.

In the case of `COc1ccc(-c2[nH]c3ccc(N4CCC(C5CCN(CCC(F)(F)F)CC5)CC4)cc3c2C(C)C)cc1OC` [Example 97, 2-(3,4-dimethoxyphenyl)-3-isopropyl-5-(1′-(3,3,3-trifluoropropyl)-[4,4′-bipiperidin]-1-yl)-1H-indole], the IC50 amounted to 6.61 µM in assay [1], 1.91 µM in assay [2] and 0.862 µM in assay [3].

Regarding `CCc1c(-c2ccnc(OC)c2)[nH]c2ccc(N3CCN(C4CC(C)(C)NC(C)(C)C4)CC3)cc12` [Example 161, 3-ethyl-2-(2-methoxypyridin-4-yl)-5-(4-(2,2,6,6-tetramethylpiperidin-4-yl)piperazin-1-yl)-lH-indole], the IC50 in assay [1] turned out to be 0.243 µM; in assay [2], 0.0081 µM; in assay [3], 0.063 µM.

For `CCN1CCN(C2CCN(c3ccc4[nH]c(-c5ccc(OC)c(OC)c5)c(C(C)C)c4c3)CC2)CC1` [Example 78, 2-(3,4-dimethoxyphenyl)-5-(4-(4-ethylpiperazin-1-yl)piperidin-1-yl)-3-isopropyl-1H-indole], the IC50 in assay [1] stood at 0.929 µM; in assay [2], 0.014 µM; in assay [3] it was 0.05 µM.

As to `COc1ccc(-c2[nH]c3ccc(N4CCN(C5CCN(C(C)C)CC5)CC4)cc3c2C)cc1OC` [Example 164, 2-(3,4-dimethoxyphenyl)-5-(4-(1-isopropylpiperidin-4-yl)piperazin-1-yl)-3-methyl-1H-indole], the IC50 in assay [1] was 0.577 µM; in assay [2] it was more than 50 µM; in assay [3], 7.09 µM.

In the case of `COc1ccc(-c2[nH]c3ccc(N4CCC(NCCCN(C)C)CC4)cc3c2C(C)C)cc1OC` [Example 76, N1-(1-(2-(3,4-dimethoxyphenyl)-3-isopropyl-H-indol-5-yl)piperidin-4-yl)-N3,N3-dimethylpropane-1,3-diamine], the IC50 was 0.782 µM in assay [1], 0.0078 µM in assay [2] and 0.018 µM in assay [3].
